Here are results for 15 molecules from US20240317721A1, “PYRAZOLYL DERIVATIVES AS INHIBITORS OF THE KRAS MUTANT PROTEIN” (NOVARTIS AG, priority 2021, published 2024).

As a reminder, the IC50 is the concentration at which inhibition is half-maximal.

The structures appear in SMILES notation.

The experiment has as its target KRasG12C (M1-K169, biotinylated on the N-terminus) (Homo sapiens (Human), UniProt P01116, G12C). Description: Covalent competition assay: scintillation proximity assay (SPA) quantifying covalent modification of KRASG12C. It is filed as binding. Conditions: competition with radiolabeled covalent probe (Compound B/Compound A), 2 hours incubation, 10 nM KRasG12C. The method in brief:
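Scintillation proximity readout after streptavidin bead capture (30 min) of biotinylated KRasG12C(M1-K169):GDP, 10 nM final, which was covalently labelled over 2 h by 25 nM radio-probe plus 475 nM cold probe unless blocked by compound.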
As to `C=CC(=O)N1CC2(CC(n3nc(N4CCC5C(CC(=O)N5C)C4)c(-c4c(Cl)c(C)cc5[nH]ncc45)c3C)C2)C1` (single isomer, unassigned) [Example 38a, 5-(1-(2-acryloyl-2-azaspiro[3.3]heptan-6-yl)-4-(5-chloro-6-methyl-1H-indazol-4-yl)-5-methyl-1H-pyrazol-3-yl)-1-methyloctahydro-2H-pyrrolo[3,2-c]pyridin-2-one], the IC50 is more than 5000 nM.
Regarding `C=CC(=O)N1CC2(CC(n3nc(N4CCC5C(CC(=O)N5C)C4)c(-c4c(Cl)c(C)cc5[nH]ncc45)c3C)C2)C1` (single isomer, unassigned) [Example 38b, 5-(1-(2-acryloyl-2-azaspiro[3.3]heptan-6-yl)-4-(5-chloro-6-methyl-1H-indazol-4-yl)-5-methyl-1H-pyrazol-3-yl)-1-methyloctahydro-2H-pyrrolo[3,2-c]pyridin-2-one], the IC50 came out at 89 nM.
In the case of `C=CC(=O)N1CC2(CC(n3nc(N4CCC5C(CC(=O)N5C)C4)c(-c4c(Cl)c(C)cc5[nH]ncc45)c3C)C2)C1` (single isomer, unassigned) [Example 39a, 5-(1-(2-acryloyl-2-azaspiro[3.3]heptan-6-yl)-4-(5-chloro-6-methyl-1H-indazol-4-yl)-5-methyl-1H-pyrazol-3-yl)-1-methyloctahydro-2H-pyrrolo[3,2-c]pyridin-2-one], the IC50 turned out to be 42100 nM.
For `C=CC(=O)N1CC2(CC(n3nc(N4CCC5C(CC(=O)N5C)C4)c(-c4c(Cl)c(C)cc5[nH]ncc45)c3C)C2)C1` (single isomer, unassigned) [Example 39b, 5-(1-(2-acryloyl-2-azaspiro[3.3]heptan-6-yl)-4-(5-chloro-6-methyl-1H-indazol-4-yl)-5-methyl-1H-pyrazol-3-yl)-1-methyloctahydro-2H-pyrrolo[3,2-c]pyridin-2-one] the value was 75 nM.
As for `C=CC(=O)N1CC2(CC(n3nc(N4CCc5nn(C)c(=O)cc5C4)c(-c4c(Cl)c(C)cc5[nH]ncc45)c3C)C2)C1` (single isomer, unassigned) [Example 40a, 6-(1-(2-acryloyl-2-azaspiro[3.3]heptan-6-yl)-4-(5-chloro-6-methyl-1H-indazol-4-yl)-5-methyl-1H-pyrazol-3-yl)-2-methyl-5,6,7,8-tetrahydropyrido[4,3-c]pyridazin-3(2H)-one], the figure is more than 50000 nM.
As for `C=CC(=O)N1CC2(CC(n3nc(N4CCc5nn(C)c(=O)cc5C4)c(-c4c(Cl)c(C)cc5[nH]ncc45)c3C)C2)C1` (single isomer, unassigned) [Example 40b, 6-(1-(2-acryloyl-2-azaspiro[3.3]heptan-6-yl)-4-(5-chloro-6-methyl-1H-indazol-4-yl)-5-methyl-1H-pyrazol-3-yl)-2-methyl-5,6,7,8-tetrahydropyrido[4,3-c]pyridazin-3(2H)-one], the figure is 633 nM; as for `C=CC(=O)N1CC2(CC(n3nc(N4CCn5nccc5C4C)c(-c4c(Cl)c(C)cc5[nH]ncc45)c3C)C2)C1` (single isomer, unassigned) [Example 41a, 1-(6-(4-(5-chloro-6-methyl-1H-indazol-4-yl)-5-methyl-3-(4-methyl-6,7-dihydropyrazolo[1,5-a]pyrazin-5(4H)-yl)-1H-pyrazol-1-yl)-2-azaspiro[3.3]heptan-2-yl)prop-2-en-1-one], 41900 nM; as for `C=CC(=O)N1CC2(CC(n3nc(N4CCn5nccc5C4C)c(-c4c(Cl)c(C)cc5[nH]ncc45)c3C)C2)C1` (single isomer, unassigned) [Example 41b, 1-(6-(4-(5-chloro-6-methyl-1H-indazol-4-yl)-5-methyl-3-(4-methyl-6,7-dihydropyrazolo[1,5-a]pyrazin-5(4H)-yl)-1H-pyrazol-1-yl)-2-azaspiro[3.3]heptan-2-yl)prop-2-en-1-one], 149 nM.
Regarding `C=CC(=O)N1CC2(CC(n3nc(N4CCn5nccc5C4C)c(-c4c(Cl)c(C)cc5[nH]ncc45)c3C)C2)C1` (single isomer, unassigned) [Example 42a, 1-(6-(4-(5-chloro-6-methyl-1H-indazol-4-yl)-5-methyl-3-(4-methyl-6,7-dihydropyrazolo[1,5-a]pyrazin-5(4H)-yl)-1H-pyrazol-1-yl)-2-azaspiro[3.3]heptan-2-yl)prop-2-en-1-one], the IC50 is more than 50000 nM.
For `C=CC(=O)N1CC2(CC(n3nc(N4CCn5nccc5C4C)c(-c4c(Cl)c(C)cc5[nH]ncc45)c3C)C2)C1` (single isomer, unassigned) [Example 42b, 1-(6-(4-(5-chloro-6-methyl-1H-indazol-4-yl)-5-methyl-3-(4-methyl-6,7-dihydropyrazolo[1,5-a]pyrazin-5(4H)-yl)-1H-pyrazol-1-yl)-2-azaspiro[3.3]heptan-2-yl)prop-2-en-1-one] the value was 186 nM; for `C=CC(=O)N1CC2(CC(n3nc(N4CCCc5c(cnn5C)C4)c(-c4c(Cl)c(C)cc5[nH]ncc45)c3C)C2)C1` (single isomer, unassigned) [Example 43a, 1-(6-(4-(5-chloro-6-methyl-1H-indazol-4-yl)-5-methyl-3-(1-methyl-4,6,7,8-tetrahydropyrazolo[4,3-c]azepin-5(1H)-yl)-1H-pyrazol-1-yl)-2-azaspiro[3.3]heptan-2-yl)prop-2-en-1-one], more than 50000 nM; for `C=CC(=O)N1CC2(CC(n3nc(N4CCCc5c(cnn5C)C4)c(-c4c(Cl)c(C)cc5[nH]ncc45)c3C)C2)C1` (single isomer, unassigned) [Example 43b, 1-(6-(4-(5-chloro-6-methyl-1H-indazol-4-yl)-5-methyl-3-(1-methyl-4,6,7,8-tetrahydropyrazolo[4,3-c]azepin-5(1H)-yl)-1H-pyrazol-1-yl)-2-azaspiro[3.3]heptan-2-yl)prop-2-en-1-one], 758 nM.
As for `C=CC(=O)N1CC2(CC(n3nc(N4CCC(n5ccnc5)CC4(C)C)c(-c4c(Cl)c(C)cc5[nH]ncc45)c3C)C2)C1` (single isomer, unassigned) [Example 44a, 1-(6-(3-(4-(1H-imidazol-1-yl)-2,2-dimethylpiperidin-1-yl)-4-(5-chloro-6-methyl-1H-indazol-4-yl)-5-methyl-1H-pyrazol-1-yl)-2-azaspiro[3.3]heptan-2-yl)prop-2-en-1-one], the figure is 4600 nM.
As for `C=CC(=O)N1CC2(CC(n3nc(N4CCC(n5ccnc5)CC4(C)C)c(-c4c(Cl)c(C)cc5[nH]ncc45)c3C)C2)C1` (single isomer, unassigned) [Example 44b, 1-(6-(3-(4-(1H-imidazol-1-yl)-2,2-dimethylpiperidin-1-yl)-4-(5-chloro-6-methyl-1H-indazol-4-yl)-5-methyl-1H-pyrazol-1-yl)-2-azaspiro[3.3]heptan-2-yl)prop-2-en-1-one], the figure is 20 nM; as for `C=CC(=O)N1CC2(CC(n3nc(N4CCC(n5ccnc5)CC4(C)C)c(-c4c(Cl)c(C)cc5[nH]ncc45)c3C)C2)C1` (single isomer, unassigned) [Example 45a, 1-(6-(3-(4-(1H-imidazol-1-yl)-2,2-dimethylpiperidin-1-yl)-4-(5-chloro-6-methyl-1H-indazol-4-yl)-5-methyl-1H-pyrazol-1-yl)-2-azaspiro[3.3]heptan-2-yl)prop-2-en-1-one], 365 nM.
